# Source: publication PMC7413254 (Nature Communications, 2020)
# Substitutions are numbered along the chain they refer to. Values joined by “and” are separate entries in the source; they are usually repeats but may differ in a detail not shown here. Equal values may be shown once. Read-outs that look alike come from different tables or passages of the source.
# What was measured:
# [1] = target: T1, PfCRT^3D7 in C2^GC03 parasites (Plasmodium falciparum, UniProt Q8IBZ9); assay: P. falciparum H+-efflux assay (rate of DV alkalinisation after concanamycin A); type: cell-based; conditions: C2GC03; test solute 10 μM
# T1 construct: PfCRT also functions as a peptide transporter within its native environment of the DV membrane; expressed in transfected cells; host or cells: P. falciparum pfcrt transfectant line C2^GC03 (saponin-isolated trophozoites)
# T1 sequence (Q8IBZ9 1-424): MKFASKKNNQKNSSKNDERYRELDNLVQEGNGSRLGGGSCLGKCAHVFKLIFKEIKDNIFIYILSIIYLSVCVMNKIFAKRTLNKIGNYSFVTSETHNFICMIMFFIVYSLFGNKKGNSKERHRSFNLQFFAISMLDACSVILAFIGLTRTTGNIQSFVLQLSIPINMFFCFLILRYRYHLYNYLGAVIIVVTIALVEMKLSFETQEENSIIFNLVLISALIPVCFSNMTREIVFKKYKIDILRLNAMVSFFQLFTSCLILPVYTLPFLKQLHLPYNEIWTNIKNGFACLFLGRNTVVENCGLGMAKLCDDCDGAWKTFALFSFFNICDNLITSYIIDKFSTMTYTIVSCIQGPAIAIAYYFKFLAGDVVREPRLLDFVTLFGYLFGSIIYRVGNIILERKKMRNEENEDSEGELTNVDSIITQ
# [2] = target: T2, PfCRT^Dd2 in C4^Dd2 parasites (Plasmodium falciparum, UniProt Q8IBZ9, A220S/I356T/K76T/M74I/N326S/N75E/Q271E/R371I); assay: as above; type: cell-based; conditions: C4Dd2; test solute 10 μM
# T2 construct: PfCRT also functions as a peptide transporter within its native environment of the DV membrane; expressed in transfected cells; host or cells: P. falciparum pfcrt transfectant line C4^Dd2 (saponin-isolated trophozoites)
# T2 sequence (Q8IBZ9 1-424 M74I/N75E/K76T/A220S/Q271E/N326S/I356T/R371I): T1 sequence (Q8IBZ9 1-424) with M74I, N75E, K76T, A220S, Q271E, N326S, I356T, R371I
# non-expressing oocytes [3] = assay: cells; type: cell-based, Xenopus laevis; conditions: for inhibition at 500 µM / inhibition at 1000 µM / inhibition at 2000 µM: Xenopus laevis, Oocyte
# Summary of the method: (§1)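 Each treatment used ten oocytes, repeated in at least four experiments on different days with oocytes from different frogs. Conditions: ND96 pH 5.5, 27.5 °C, 1.5 h; read-out by scintillation counting.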
# PfCRT^3D7 [4] = target: T3, PfCRT^3D7 (Plasmodium falciparum, UniProt Q8IBZ9); assay: cell-based; type: cell-based
# Summary of the method: as §1
# PfCRT^Dd2 = PfCRT^Dd2 (Plasmodium falciparum, UniProt Q9N623, A220S/I356T/K76T/M74I/N326S/N75E/Q271E/R371I); assay: [3H]CQ uptake into Xenopus oocytes, cis-inhibition by unlabelled solute; type: cell-based; conditions: for PfCRT-mediated [3H]CQ transport, cis-inhibition (% PfCRTDd2 control): PfCRTDd2 oocytes, background [3H]CQ accumulation subtracted, normalised to oocyte type control; for Uptake of [3H]CQ (% PfCRTDd2 control), cis-inhibition, PfCRTDd2: total [3H]CQ transport, mean ± SEM
# Chain of PfCRT^Dd2 (Q9N623 whole entry A220S/I356T/K76T/M74I/N326S/N75E/Q271E/R371I): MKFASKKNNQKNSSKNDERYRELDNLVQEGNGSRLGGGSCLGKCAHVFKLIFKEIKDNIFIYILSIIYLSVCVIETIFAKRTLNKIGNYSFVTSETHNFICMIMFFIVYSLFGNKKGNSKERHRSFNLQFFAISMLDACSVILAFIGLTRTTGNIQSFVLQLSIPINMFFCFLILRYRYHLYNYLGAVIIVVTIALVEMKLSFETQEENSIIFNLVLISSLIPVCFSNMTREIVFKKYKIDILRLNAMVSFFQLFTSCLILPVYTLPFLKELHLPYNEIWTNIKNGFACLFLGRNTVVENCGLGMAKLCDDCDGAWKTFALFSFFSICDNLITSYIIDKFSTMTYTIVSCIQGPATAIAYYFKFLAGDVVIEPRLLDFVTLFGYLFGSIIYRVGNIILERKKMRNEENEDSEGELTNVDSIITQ
# Summary of the method: as §1
# PfCRT^Ecu1110 = PfCRT^Ecu1110 (Plasmodium falciparum, UniProt Q9N623, A220S/I356L/K76T/N326D); assay: as above; type: cell-based; conditions: for Uptake of [3H]CQ (% PfCRTEcu1110 control), cis-inhibition / Uptake of [3H]CQ (% PfCRTDd2 control), cis-inhibition, PfCRTEcu1110: total [3H]CQ transport; for Uptake of [3H]CQ (% PfCRTEcu1110 control), cis-inhibition: normalised to the oocyte type control; for [3H]CQ transport (% PfCRTEcu1110 control), cis-inhibition, PfCRTEcu1110: PfCRT-mediated component (background subtracted), sheet title says normalised to PfCRTDd2 control; for [3H]CQ transport (% PfCRTEcu1110 control), cis-inhibition, PfCRTEcu1110 / Uptake of [3H]CQ (% PfCRTDd2 control), cis-inhibition, PfCRTEcu1110: mean ± SEM
# Chain of PfCRT^Ecu1110 (Q9N623 whole entry A220S/I356L/K76T/N326D): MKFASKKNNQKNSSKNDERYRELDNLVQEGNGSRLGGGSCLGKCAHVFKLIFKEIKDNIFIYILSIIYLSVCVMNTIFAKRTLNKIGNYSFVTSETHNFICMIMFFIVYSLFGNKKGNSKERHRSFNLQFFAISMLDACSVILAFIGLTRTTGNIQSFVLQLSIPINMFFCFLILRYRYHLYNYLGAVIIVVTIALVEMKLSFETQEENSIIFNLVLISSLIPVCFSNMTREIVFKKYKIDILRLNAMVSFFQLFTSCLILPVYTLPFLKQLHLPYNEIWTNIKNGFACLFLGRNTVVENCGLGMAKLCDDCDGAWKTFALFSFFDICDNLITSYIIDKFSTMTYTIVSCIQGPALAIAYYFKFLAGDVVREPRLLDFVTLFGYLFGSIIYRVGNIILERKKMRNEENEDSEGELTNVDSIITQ
# Summary of the method: as §1
# non-expressing oocytes [5] = type: cell-based, Xenopus laevis; conditions: SEM
# Summary of the method: (§2)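 Oocytes (ten per treatment, ≥4 independent frogs/days) were preloaded by injecting VF-6 in 25 nL ND96 at pH 5.0, 5.5, 6.0 or 7.0, or Na^+-free choline buffer, then uptake run 1.5 h, 27.5 °C, ND96 pH 5.5 by default. Internal concentrations assumed ~400 nL oocyte volume.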
# PfNT1 = target: T4, PfNT1 (Plasmodium falciparum, UniProt Q8IDM6); assay: cell-based; type: cell-based; conditions: SEM
# T4 construct: expressed in transfected cells; host or cells: Xenopus laevis oocytes (stage V-VI), cRNA-injected
# T4 sequence (Q8IDM6 whole entry): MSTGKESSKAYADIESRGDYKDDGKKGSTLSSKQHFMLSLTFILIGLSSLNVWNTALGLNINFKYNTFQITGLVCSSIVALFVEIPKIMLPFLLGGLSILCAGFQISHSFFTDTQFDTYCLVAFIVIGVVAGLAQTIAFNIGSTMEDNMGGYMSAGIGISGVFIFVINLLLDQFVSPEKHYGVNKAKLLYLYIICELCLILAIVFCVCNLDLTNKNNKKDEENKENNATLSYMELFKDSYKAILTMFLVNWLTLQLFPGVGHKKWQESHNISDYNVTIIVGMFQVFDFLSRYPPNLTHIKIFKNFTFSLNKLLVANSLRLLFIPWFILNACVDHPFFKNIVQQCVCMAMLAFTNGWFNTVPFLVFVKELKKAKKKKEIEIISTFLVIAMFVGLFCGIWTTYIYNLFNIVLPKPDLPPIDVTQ
# Summary of the method: as §2
# PfCRT [6] = assay: Influx of VF-6 via PfCRT into the oocyte, solutes tested as potential co-substrates; type: cell-based, Plasmodium falciparum; design: key: X: Compounds that have been tested as potential co-substrates but are not required for influx of VF-6 via PfCRT into the oocyte; conditions: X marks the solute
# PfCRT [7] = assay: Test of solutes as potential co-substrates for influx of VF-6 via PfCRT into the oocyte; type: cell-based, Plasmodium falciparum; design: key: X: Compounds that have been tested as potential co-substrates but are not required for influx of VF-6 via PfCRT into the oocyte; conditions: X = tested
# PfCRT [8] = assay: Potential co-substrates tested for influx of VF-6 via PfCRT into the oocyte; type: cell-based, Plasmodium falciparum; design: key: X: Compounds that have been tested as potential co-substrates but are not required for influx of VF-6 via PfCRT into the oocyte
# PfCRT^3D7 [9] = target: T3, PfCRT^3D7; assay: cell-based; type: cell-based; conditions: SEM
# Summary of the method: as §2
# [10] = read-out: Uptake of [3H]CQ (% PfCRTDd2 control), cis-inhibition, non-expressing oocytes, SEM
# [11] = read-out: Uptake of [3H]CQ (% non-expressing oocyte control), cis-inhibition
# [12] = read-out: Uptake of [3H]CQ (% PfCRTDd2 control), cis-inhibition, PfCRT3D7, SEM
# [13] = read-out: PfCRT-mediated [3H]CQ transport, cis-inhibition (% PfCRTDd2 control)
# [14] = read-out: PfCRT-mediated [3H]CQ transport, cis-inhibition (% PfCRTEcu1110 control)
# [15] = read-out: Uptake of [3H]CQ (% PfCRTDd2 control), cis-inhibition, PfCRTEcu1110, SEM
# [16] = read-out: Uptake of [3H]CQ (% PfCRTEcu1110 control), cis-inhibition
# [17] = read-out: [3H]CQ transport (% PfCRTEcu1110 control), cis-inhibition, PfCRTEcu1110, SEM
smiles,measurement,setting,value
CC(C)C[C@H](NC(=O)[C@H]1O[C@@H]1C(=O)O)C(=O)NCCCCN=C(N)N [E-64],Effect on rate of DV alkalinisation / H+ leak (in words),[1],caused a H^+ leak
same,Effect on rate of DV alkalinisation / H+ leak (in words),[2],neither peptide exerted an effect
NCC(=O)O [L-glycine],"Uptake of [3H]CQ (% non-expressing oocyte control), cis-inhibition",non-expressing oocytes [3],100 ± 4.6 % non-expressing oocyte control and 98 ± 7.4 % non-expressing oocyte control and 100 ± 3.5 % non-expressing oocyte control
same,"Uptake of [3H]CQ (% PfCRTDd2 control), cis-inhibition, non-expressing oocytes",non-expressing oocytes [3]; SEM,3.1 ± 0.09 % PfCRTDd2 control and 2.2 ± 0.03 % PfCRTDd2 control and 2.7 ± 0.03 % PfCRTDd2 control
same,"Uptake of [3H]CQ (% PfCRT3D7 control), cis-inhibition",PfCRT^3D7 [4],100 ± 3.6 % PfCRT3D7 control and 100 ± 4.8 % PfCRT3D7 control
same,"Uptake of [3H]CQ (% PfCRTDd2 control), cis-inhibition, PfCRT3D7",PfCRT^3D7 [4]; SEM,3.6 ± 0.07 % PfCRTDd2 control and 2.1 ± 0.01 % PfCRTDd2 control and 2.9 ± 0.04 % PfCRTDd2 control
same,"PfCRT-mediated [3H]CQ transport, cis-inhibition (% PfCRTDd2 control)",PfCRT^Dd2; [test solute] = 1 mM,94 ± 3.7 % PfCRTDd2 control
same,"PfCRT-mediated [3H]CQ transport, cis-inhibition (% PfCRTDd2 control)",PfCRT^Dd2; [test solute] = 2 mM,93 ± 3.1 % PfCRTDd2 control
same,"Uptake of [3H]CQ (% PfCRTDd2 control), cis-inhibition, PfCRTDd2","PfCRT^Dd2; [test solute] = 0.5 mM, SEM",97 ± 3.3 % PfCRTDd2 control
same,"Uptake of [3H]CQ (% PfCRTDd2 control), cis-inhibition, PfCRTDd2","PfCRT^Dd2; [test solute] = 2 mM, SEM",95 ± 3.6 % PfCRTDd2 control
same,"Uptake of [3H]CQ (% PfCRTEcu1110 control), cis-inhibition","PfCRT^Ecu1110; PfCRTEcu1110 oocytes, [test solute] = 0.5 mM",95 ± 4.2 % PfCRTEcu1110 control
same,"Uptake of [3H]CQ (% PfCRTEcu1110 control), cis-inhibition","PfCRT^Ecu1110; PfCRTEcu1110 oocytes, [test solute] = 1 mM",100 ± 3.2 % PfCRTEcu1110 control
same,"PfCRT-mediated [3H]CQ transport, cis-inhibition (% PfCRTEcu1110 control)","PfCRT^Ecu1110; [test solute] = 0.5 mM, PfCRTEcu1110 oocytes, background [3H]CQ accumulation subtracted, normalised to oocyte type control",94 ± 5.1 % PfCRTEcu1110 control
same,"[3H]CQ transport (% PfCRTEcu1110 control), cis-inhibition, PfCRTEcu1110","PfCRT^Ecu1110; [test solute] = 0.5 mM, SEM",28 ± 0.5 % PfCRTEcu1110 control
same,"[3H]CQ transport (% PfCRTEcu1110 control), cis-inhibition, PfCRTEcu1110","PfCRT^Ecu1110; [test solute] = 1 mM, SEM",30 ± 0.5 % PfCRTEcu1110 control
same,"[3H]CQ transport (% PfCRTEcu1110 control), cis-inhibition, PfCRTEcu1110","PfCRT^Ecu1110; [test solute] = 2 mM, SEM",29 ± 0.4 % PfCRTEcu1110 control
same,"Uptake of [3H]CQ (% PfCRTDd2 control), cis-inhibition, PfCRTEcu1110","PfCRT^Ecu1110; [test solute] = 0.5 mM, SEM",31 ± 1.5 % PfCRTDd2 control
same,"Uptake of [3H]CQ (% PfCRTDd2 control), cis-inhibition, PfCRTEcu1110","PfCRT^Ecu1110; [test solute] = 1 mM, SEM",33 ± 1.0 % PfCRTDd2 control
same,"Uptake of [3H]CQ (% PfCRTDd2 control), trans-stimulation, non-expressing oocytes",non-expressing oocytes [5],2.8 ± 0.05 % PfCRTDd2 control
same,"Uptake of [3H]CQ (% PfCRTDd2 control), trans-stimulation, PfNT1",PfNT1,2.9 ± 0.03 % PfCRTDd2 control
same,Compounds that have been tested as potential co-substrates but are not required for influx of VF-6 via PfCRT into the oocyte,PfCRT [6],X
same,Tested as potential co-substrate but not required for influx of VF-6 via PfCRT into the oocyte,PfCRT [7],X
same,Tested as potential co-substrate but not required for influx of VF-6 via PfCRT into the oocyte,PfCRT [8],X
O=C(O)[C@@H]1CCCN1 [L-proline],inhibition at 500 µM,non-expressing oocytes [3]; [10],2.8 ± 0.09%
same,inhibition at 1000 µM,non-expressing oocytes [3]; [10],3.1 ± 0.03%
same,inhibition at 2000 µM,non-expressing oocytes [3]; [10],3.4 ± 0.07%
same,inhibition at 500 µM,non-expressing oocytes [3]; [11],99 ± 3.3%
same,inhibition at 1000 µM,non-expressing oocytes [3]; [11],100 ± 3.5%
same,inhibition at 2000 µM,non-expressing oocytes [3]; [11],97 ± 5.3%
same,inhibition at 500 µM,"PfCRT^3D7 [4]; read-out: Uptake of [3H]CQ (% PfCRT3D7 control), cis-inhibition",99 ± 6.2%
same,inhibition at 500 µM,PfCRT^3D7 [4]; [12],2.3 ± 0.01%
same,inhibition at 2000 µM,PfCRT^3D7 [4]; [12],2.6 ± 0.04%
same,inhibition at 500 µM,PfCRT^Dd2; [13],95 ± 4.2%
same,inhibition at 1000 µM,PfCRT^Dd2; [13],96 ± 3.2%
same,inhibition at 1000 µM,"PfCRT^Dd2; read-out: Uptake of [3H]CQ (% PfCRTDd2 control), cis-inhibition, PfCRTDd2, SEM",98 ± 4.8%
same,inhibition at 500 µM,PfCRT^Ecu1110; [14],98 ± 4.6%
same,inhibition at 1000 µM,PfCRT^Ecu1110; [14],94 ± 3.6%
same,inhibition at 2000 µM,PfCRT^Ecu1110; [14],95 ± 2.6%
same,inhibition at 500 µM,PfCRT^Ecu1110; [15],33 ± 1.4%
same,inhibition at 1000 µM,PfCRT^Ecu1110; [15],31 ± 1.5%
same,inhibition at 2000 µM,PfCRT^Ecu1110; [15],32 ± 1.4%
same,inhibition at 500 µM,PfCRT^Ecu1110; [16],100 ± 7.7%
same,inhibition at 1000 µM,PfCRT^Ecu1110; [16],96 ± 8.1%
same,inhibition at 2000 µM,PfCRT^Ecu1110; [16],96 ± 4.3%
same,inhibition at 500 µM,PfCRT^Ecu1110; [17],30 ± 1.4%
same,inhibition at 1000 µM,PfCRT^Ecu1110; [17],28 ± 0.6%
same,inhibition at 2000 µM,PfCRT^Ecu1110; [17],29 ± 1.4%
same,"Uptake of [3H]CQ (% PfCRTDd2 control), trans-stimulation, non-expressing oocytes",non-expressing oocytes [5],2.6 ± 0.08 % PfCRTDd2 control
same,"[3H]CQ transport (% PfCRT3D7 control), trans-stimulation, PfCRT3D7",PfCRT^3D7 [9],0.2 ± 0.02 % PfCRT3D7 control
same,activity at 5000 µM,"PfNT1; […], read-out: Uptake of [3H]CQ (% PfCRTDd2 control), trans-stimulation, PfNT1",3.1 ± 0.08%
same,Compounds that have been tested as potential co-substrates but are not required for influx of VF-6 via PfCRT into the oocyte,PfCRT [6],X
same,Tested as potential co-substrate but not required for influx of VF-6 via PfCRT into the oocyte,PfCRT [7],X
same,Tested as potential co-substrate but not required for influx of VF-6 via PfCRT into the oocyte,PfCRT [8],X
